Earlier results, collected in paper PMC6606825 (Journal of Ginseng Research, 2018).

Tested on: P-gp
Details: in vitro and in situ; cited from earlier work

Compound | P-gp inhibition
CC(C)=CCC[C@](C)(O)[C@H]1CC[C@]2(C)[C@@H]1[C@H](O)C[C@@H]1[C@@]3(C)CC[C@H](O)C(C)(C)[C@@H]3CC[C@]12C [20(S)-PPD, 20(S)-protopanaxadiol] | inhibit P-gp
CC(C)=CCC[C@](C)(O[C@@H]1O[C@H](CO)[C@@H](O)[C@H](O)[C@H]1O)[C@H]1CC[C@]2(C)[C@@H]1[C@H](O)C[C@@H]1[C@@]3(C)CC[C@H](O)C(C)(C)[C@@H]3CC[C@]12C [Ginsenoside compound K, 20-O-beta-D-glucopyranosyl-20(S)-protopanaxadiol] | inhibit P-gp
